In PMC5218480 (PLoS ONE, 2017):

System: MV-4-11 cells
Experiment: Gene expression microarray analysis (Affymetrix PrimeView) and GSEA
Format: cell-based, human
Set-up: RFU PODN (11730768_x_at) / Fold change /veh PODN (11730768_x_at) / RFU LINC00158 (11744669_a_at) / Fold change /veh LINC00158 (11744669_a_at) / RFU DUSP10 (11751237_a_at) / Fold change /veh DUSP10 (11751237_a_at) / RFU ID3 (11757404_x_at) / Fold change /veh ID3 (11757404_x_at) / RFU PLEKHG5 (11737974_s_at) / Fold change /veh PLEKHG5 (11737974_s_at) / RFU LRRC4B (11730491_at) / Fold change /veh LRRC4B (11730491_at) / RFU GIMAP4 (11747438_a_at) / Fold change /veh GIMAP4 (11747438_a_at) / RFU KRT8 (11758183_x_at) / Fold change /veh KRT8 (11758183_x_at) / RFU CNN1 (11734310_a_at) / Fold change /veh CNN1 (11734310_a_at) / RFU VPS37D (11726825_at) / Fold change /veh VPS37D (11726825_at) / RFU C10orf10 (11716522_x_at) / Fold change /veh C10orf10 (11716522_x_at) / RFU KIR2DL2 /// KIR2DL4 /// KIR2DL5A /// KIR2DL5B /// KIR2DS1 /// KIR2DS2 /// KIR2DS3 /// KIR2DS4 /// KIR3DL3 /// KIR3DL3 /// KIR3DS1 (11738374_at) / Fold change /veh KIR2DL2 /// KIR2DL4 /// KIR2DL5A /// KIR2DL5B /// KIR2DS1 /// KIR2DS2 /// KIR2DS3 /// KIR2DS4 /// KIR3DL3 /// KIR3DL3 /// KIR3DS1 (11738374_at) / RFU C1QL1 (11718748_at) / Fold change /veh C1QL1 (11718748_at) / RFU TMPRSS4 (11747572_a_at) / Fold change /veh TMPRSS4 (11747572_a_at) / RFU HAMP (11756126_x_at) / Fold change /veh HAMP (11756126_x_at) / RFU RNFT2 (11725882_a_at) / Fold change /veh RNFT2 (11725882_a_at) / RFU NR4A2 (11747474_a_at) / Fold change /veh NR4A2 (11747474_a_at) / RFU ABCC12 (11746883_a_at) / Fold change /veh ABCC12 (11746883_a_at) / RFU TMEM136 (11760407_x_at) / Fold change /veh TMEM136 (11760407_x_at) / RFU CLDN22 /// WWC2 (11732394_at) / Fold change /veh CLDN22 /// WWC2 (11732394_at) / RFU HLA-DPB1 (11760878_x_at) / Fold change /veh HLA-DPB1 (11760878_x_at) / RFU SPINT1 (11716480_a_at) / Fold change /veh SPINT1 (11716480_a_at) / RFU GAP43 (11754022_s_at) / Fold change /veh GAP43 (11754022_s_at) / RFU A4GNT (11735810_at) / Fold change /veh A4GNT (11735810_at) / RFU PRB3 (11715151_x_at) / Fold change /veh PRB3 (11715151_x_at) / RFU TUBB4B (11761932_at) / Fold change /veh TUBB4B (11761932_at) / RFU CAPN14 (11732068_a_at) / Fold change /veh CAPN14 (11732068_a_at) / RFU TMCC2 (11721928_a_at) / Fold change /veh TMCC2 (11721928_a_at) / RFU IRGQ (11745062_a_at) / Fold change /veh IRGQ (11745062_a_at) / RFU FAM174B (11720279_a_at) / Fold change /veh FAM174B (11720279_a_at) / RFU TMPRSS4 (11748680_a_at) / Fold change /veh TMPRSS4 (11748680_a_at) / RFU FAM212B (11763350_a_at) / Fold change /veh FAM212B (11763350_a_at) / RFU PLEKHG5 (11743358_a_at) / Fold change /veh PLEKHG5 (11743358_a_at) / RFU ZSCAN30 (11745921_a_at) / Fold change /veh ZSCAN30 (11745921_a_at) / RFU CMKLR1 (11741424_a_at) / Fold change /veh CMKLR1 (11741424_a_at) / RFU LOC101060620 /// MAPK8IP1 (11723275_at) / Fold change /veh LOC101060620 /// MAPK8IP1 (11723275_at) / RFU SPTSSB (11747773_x_at) / Fold change /veh SPTSSB (11747773_x_at) / RFU PRSS12 (11739890_at) / Fold change /veh PRSS12 (11739890_at) / RFU BIN1 (11741810_x_at) / Fold change /veh BIN1 (11741810_x_at) / RFU WNT11 (11732464_a_at) / Fold change /veh WNT11 (11732464_a_at) / RFU C10orf10 (11716521_a_at) / Fold change /veh C10orf10 (11716521_a_at) / RFU C5orf56 (11738089_at) / Fold change /veh C5orf56 (11738089_at) / RFU CYB561 (11721691_x_at) / Fold change /veh CYB561 (11721691_x_at) / RFU ANKRD19P (11752326_a_at) / Fold change /veh ANKRD19P (11752326_a_at) / RFU OR2T12 /// OR2T33 /// OR2T8 (11738714_s_at) / Fold change /veh OR2T12 /// OR2T33 /// OR2T8 (11738714_s_at) / RFU VCAN (11748164_a_at) / Fold change /veh VCAN (11748164_a_at) / RFU JSRP1 (11732532_at) / Fold change /veh JSRP1 (11732532_at) / RFU KRTAP10-11 (11738290_x_at) / Fold change /veh KRTAP10-11 (11738290_x_at) / RFU MYO3A (11730013_a_at) / Fold change /veh MYO3A (11730013_a_at) / RFU EBF3 (11725865_a_at) / Fold change /veh EBF3 (11725865_a_at) / RFU CAMK2N1 (11719241_x_at) / Fold change /veh CAMK2N1 (11719241_x_at) / RFU C5orf56 (11738088_a_at) / Fold change /veh C5orf56 (11738088_a_at) / RFU OLFML3 (11715873_a_at) / Fold change /veh OLFML3 (11715873_a_at) / RFU LOC100653217 /// NTM (11731650_a_at) / Fold change /veh LOC100653217 /// NTM (11731650_a_at) / RFU MAPK11 (11762145_a_at) / Fold change /veh MAPK11 (11762145_a_at) / RFU FIZ1 (11724087_x_at) / Fold change /veh FIZ1 (11724087_x_at) / RFU OASL (11726364_x_at) / Fold change /veh OASL (11726364_x_at) / RFU SOX15 (11748057_x_at) / Fold change /veh SOX15 (11748057_x_at) / RFU CD79A (11719716_a_at) / Fold change /veh CD79A (11719716_a_at) / RFU HIST1H1D (11736915_at) / Fold change /veh HIST1H1D (11736915_at) / RFU CASKIN2 (11723855_a_at) / Fold change /veh CASKIN2 (11723855_a_at) / RFU LOC730098 (11760151_x_at) / Fold change /veh LOC730098 (11760151_x_at) / RFU OR4N2 (11742367_at) / Fold change /veh OR4N2 (11742367_at) / RFU PRRT2 (11749266_a_at) / Fold change /veh PRRT2 (11749266_a_at) / RFU SNX32 (11753110_a_at) / Fold change /veh SNX32 (11753110_a_at) / RFU CDHR5 (11726645_a_at) / Fold change /veh CDHR5 (11726645_a_at) / RFU RCAN1 (11760418_a_at) / Fold change /veh RCAN1 (11760418_a_at) / RFU FAM167A (11723789_a_at) / Fold change /veh FAM167A (11723789_a_at) / RFU FAM26E (11764081_at) / Fold change /veh FAM26E (11764081_at) / RFU ISYNA1 (11749810_s_at) / Fold change /veh ISYNA1 (11749810_s_at) / RFU ACY1 (11761880_at) / Fold change /veh ACY1 (11761880_at) / RFU 11764098_at / Fold change /veh 11764098_at / RFU SAMD14 (11745864_x_at) / Fold change /veh SAMD14 (11745864_x_at) / RFU NPB (11741838_a_at) / Fold change /veh NPB (11741838_a_at) / RFU TMPRSS6 (11731388_a_at) / Fold change /veh TMPRSS6 (11731388_a_at) / RFU KRTAP10-2 (11738614_at) / Fold change /veh KRTAP10-2 (11738614_at) / RFU ARHGAP8 /// PRR5-ARHGAP8 (11727945_x_at) / Fold change /veh ARHGAP8 /// PRR5-ARHGAP8 (11727945_x_at) / RFU KRTAP5-7 /// NADSYN1 (11734609_at) / Fold change /veh KRTAP5-7 /// NADSYN1 (11734609_at) / RFU RASL12 (11751679_a_at) / Fold change /veh RASL12 (11751679_a_at) / RFU CDKN2B (11736163_a_at) / Fold change /veh CDKN2B (11736163_a_at) / RFU PRF1 (11729649_at) / Fold change /veh PRF1 (11729649_at) / RFU, ZNF638 /// ZNF638-IT1 / Fold change vs veh, ZNF638 /// ZNF638-IT1 / RFU, PANK3 / Fold change vs veh, PANK3 / RFU, SH3YL1 / Fold change vs veh, SH3YL1 / RFU, ZEB2 / Fold change vs veh, ZEB2 / RFU, NRIP1 / Fold change vs veh, NRIP1 / RFU, PTTG1IP / Fold change vs veh, PTTG1IP / RFU, CAPN2 / Fold change vs veh, CAPN2 / RFU, MED14 / Fold change vs veh, MED14 / RFU, SNORA58 / Fold change vs veh, SNORA58 / RFU, C1orf63 / Fold change vs veh, C1orf63 / RFU, LRRFIP1 / Fold change vs veh, LRRFIP1 / RFU, NDUFAF7 / Fold change vs veh, NDUFAF7 / RFU, SLC12A2 / Fold change vs veh, SLC12A2 / RFU, IBTK / Fold change vs veh, IBTK / RFU, ESF1 / Fold change vs veh, ESF1 / Fold change vs veh, TMEM50B / RFU, TAOK1 / Fold change vs veh, TAOK1 / RFU, ACBD3 / Fold change vs veh, ACBD3 / RFU, TMA16 / Fold change vs veh, TMA16 / RFU, RWDD3 / Fold change vs veh, RWDD3 / RFU, BCAT1 / Fold change vs veh, BCAT1 / RFU, EDEM3 / Fold change vs veh, EDEM3 / RFU, TMEM33 / Fold change vs veh, TMEM33 / RFU, WDR75 / Fold change vs veh, WDR75 / RFU, AHCTF1 / Fold change vs veh, AHCTF1 / RFU, TFRC / Fold change vs veh, TFRC / RFU, ZDHHC17 / Fold change vs veh, ZDHHC17 / RFU, NOM1 / Fold change vs veh, NOM1 / RFU, ARL8B / Fold change vs veh, ARL8B / RFU, ZBTB11 / Fold change vs veh, ZBTB11 / RFU, TAMM41 / Fold change vs veh, TAMM41 / RFU, KIAA1704 /// LOC100996395 / Fold change vs veh, KIAA1704 /// LOC100996395 / RFU, ING1 / Fold change vs veh, ING1 / RFU, TRMT61B / Fold change vs veh, TRMT61B / RFU, FUBP3 / Fold change vs veh, FUBP3 / RFU, TP53 / Fold change vs veh, TP53 / RFU, TNKS2 / Fold change vs veh, TNKS2 / RFU, ZFP14 / Fold change vs veh, ZFP14 / RFU, ACTR2 / Fold change vs veh, ACTR2 / RFU, PPP3R1 / Fold change vs veh, PPP3R1 / RFU, PIK3R1 / Fold change vs veh, PIK3R1 / RFU, HNRNPA1 / Fold change vs veh, HNRNPA1 / RFU, RNF170 / Fold change vs veh, RNF170 / RFU, ZNF28 / Fold change vs veh, ZNF28 / RFU, RNGTT / Fold change vs veh, RNGTT / RFU, OGT / Fold change vs veh, OGT / RFU, BRD1 / Fold change vs veh, BRD1 / RFU, MARS / Fold change vs veh, MARS / RFU, ZNF655 / Fold change vs veh, ZNF655 / RFU, FAHD1 / Fold change vs veh, FAHD1 / RFU, BDP1 / Fold change vs veh, BDP1 / RFU, LRRCC1 / Fold change vs veh, LRRCC1 / RFU, ARID1A / Fold change vs veh, ARID1A / RFU, ZNF146 / Fold change vs veh, ZNF146 / RFU, ZNF330 / Fold change vs veh, ZNF330 / RFU, GPN3 / Fold change vs veh, GPN3 / RFU, C9orf123 / Fold change vs veh, C9orf123 / RFU, N4BP2L2 / Fold change vs veh, N4BP2L2 / RFU, ARFIP1 / Fold change vs veh, ARFIP1 / RFU, FAM179B / Fold change vs veh, FAM179B / RFU, BCL10 / Fold change vs veh, BCL10 / RFU, UHRF1BP1L / Fold change vs veh, UHRF1BP1L / RFU, BET1 / Fold change vs veh, BET1 / RFU, CNOT2 / Fold change vs veh, CNOT2 / RFU, ZNF268 / Fold change vs veh, ZNF268 / Fold change vs veh, ZNF507 / RFU, DGCR2 / Fold change vs veh, DGCR2 / RFU, WDSUB1 / Fold change vs veh, WDSUB1 / Fold change vs veh, HSP90B1 /// MIR3652 / RFU, ADSS / Fold change vs veh, ADSS / RFU, GK / Fold change vs veh, GK / RFU, ZNF148 / Fold change vs veh, ZNF148 / RFU, TAF9 / Fold change vs veh, TAF9 / RFU, SLC1A5 / Fold change vs veh, SLC1A5 / RFU, SLMO2 / Fold change vs veh, SLMO2 / RFU, ABCC4 / Fold change vs veh, ABCC4 / RFU, LOC101060439 /// RAP1B / Fold change vs veh, LOC101060439 /// RAP1B / RFU, RFX7 / Fold change vs veh, RFX7 / RFU, GTPBP10 / Fold change vs veh, GTPBP10 / RFU, CNEP1R1 / Fold change vs veh, CNEP1R1 / RFU, BIVM-ERCC5 /// ERCC5 / Fold change vs veh, BIVM-ERCC5 /// ERCC5 / RFU, ILF3 / Fold change vs veh, ILF3 / RFU 11762660_at / Fold change /veh 11762660_at / RFU VCAN (11757783_s_at) / Fold change /veh VCAN (11757783_s_at) / RFU DDX43 (11728927_at) / Fold change /veh DDX43 (11728927_at) / RFU KRT8 (11758188_x_at) / Fold change /veh KRT8 (11758188_x_at) / RFU NKD1 (11759106_at) / Fold change /veh NKD1 (11759106_at) / RFU SRD5A1 (11742802_a_at) / Fold change /veh SRD5A1 (11742802_a_at) / RFU TPSAB1 /// TPSB2 (11721975_s_at) / Fold change /veh TPSAB1 /// TPSB2 (11721975_s_at) / RFU GSTM3 (11746129_a_at) / Fold change /veh GSTM3 (11746129_a_at) / RFU IL23R (11737362_x_at) / Fold change /veh IL23R (11737362_x_at) / RFU TMEM51 (11727254_a_at) / Fold change /veh TMEM51 (11727254_a_at) / RFU PIWIL2 (11732686_x_at) / Fold change /veh PIWIL2 (11732686_x_at) / RFU ORM1 (11744905_x_at) / Fold change /veh ORM1 (11744905_x_at) / RFU CCDC152 (11743942_at) / Fold change /veh CCDC152 (11743942_at) / RFU ECM1 (11717891_a_at) / Fold change /veh ECM1 (11717891_a_at) / RFU IL23R (11748794_a_at) / Fold change /veh IL23R (11748794_a_at) / RFU TNFAIP8L3 (11732012_x_at) / Fold change /veh TNFAIP8L3 (11732012_x_at) / RFU MBOAT4 (11741988_at) / Fold change /veh MBOAT4 (11741988_at) / RFU 11764193_at / Fold change /veh 11764193_at / RFU TMEM53 (11763286_at) / Fold change /veh TMEM53 (11763286_at) / RFU MAGEB2 (11727129_at) / Fold change /veh MAGEB2 (11727129_at) / RFU TMEM200A (11744735_a_at) / Fold change /veh TMEM200A (11744735_a_at) / RFU CCDC152 (11751479_a_at) / Fold change /veh CCDC152 (11751479_a_at) / RFU FAM211A (11726209_a_at) / Fold change /veh FAM211A (11726209_a_at) / RFU RGS16 (11746705_a_at) / Fold change /veh RGS16 (11746705_a_at) / RFU VCAN (11755009_s_at) / Fold change /veh VCAN (11755009_s_at) / RFU RHOB (11743442_s_at) / Fold change /veh RHOB (11743442_s_at) / RFU RGS16 (11720943_a_at) / Fold change /veh RGS16 (11720943_a_at) / RFU RGS16 (11720944_at) / Fold change /veh RGS16 (11720944_at) / RFU, VPS4B / Fold change vs veh, VPS4B / RFU, CREB1 / Fold change vs veh, CREB1 / RFU, DNAJC13 / Fold change vs veh, DNAJC13 / RFU, GNAQ / Fold change vs veh, GNAQ / RFU, CDK5R1 / Fold change vs veh, CDK5R1 / RFU, ZRANB3 / Fold change vs veh, ZRANB3 / RFU, CUL4A / Fold change vs veh, CUL4A / RFU, CCNY / Fold change vs veh, CCNY / RFU, UFL1 / Fold change vs veh, UFL1 / RFU, COG3 / Fold change vs veh, COG3 / RFU, DIAPH2 / Fold change vs veh, DIAPH2 / RFU, SKA2 / Fold change vs veh, SKA2 / RFU, AFF3 / Fold change vs veh, AFF3 / RFU, LMF1 / Fold change vs veh, LMF1 / RFU, IPO11 / Fold change vs veh, IPO11 / RFU, DFFB / Fold change vs veh, DFFB / RFU, FOXP1 / Fold change vs veh, FOXP1 / RFU, CARD8 / Fold change vs veh, CARD8 / RFU, STRN3 / Fold change vs veh, STRN3 / RFU, ADK / Fold change vs veh, ADK / RFU, RASSF2 / Fold change vs veh, RASSF2 / RFU, WIPF1 / Fold change vs veh, WIPF1 / RFU, LARP1B / Fold change vs veh, LARP1B / RFU, RASA1 / Fold change vs veh, RASA1 / RFU, RB1 / Fold change vs veh, RB1 / RFU, PPFIA1 / Fold change vs veh, PPFIA1 / RFU, MAT2A / Fold change vs veh, MAT2A / RFU, CCT5 / Fold change vs veh, CCT5 / RFU, WDR92 / Fold change vs veh, WDR92 / RFU, CUX1 / Fold change vs veh, CUX1 / RFU, TTC7A / Fold change vs veh, TTC7A / RFU, TMEM135 / Fold change vs veh, TMEM135 / RFU, DEPTOR / Fold change vs veh, DEPTOR / RFU, CPM / Fold change vs veh, CPM / RFU, DNAJB6 / Fold change vs veh, DNAJB6 / RFU, CACNA2D3 / Fold change vs veh, CACNA2D3 / RFU, DTX4 / Fold change vs veh, DTX4 / RFU, TFCP2 / Fold change vs veh, TFCP2 / RFU, GMCL1 /// GMCL1P1 / Fold change vs veh, GMCL1 /// GMCL1P1 / RFU, AEBP2 / Fold change vs veh, AEBP2 / RFU, SNHG1 /// SNORD22 /// SNORD25 /// SNORD26 /// SNORD27 /// SNORD28 /// SNORD29 /// SNORD31 / Fold change vs veh, SNHG1 /// SNORD22 /// SNORD25 /// SNORD26 /// SNORD27 /// SNORD28 /// SNORD29 /// SNORD31 / Fold change (Aza/veh), C12orf56 (ProbeSet 11735607_a_at) / Fold change (ACY-1035/veh), C12orf56 (ProbeSet 11735607_a_at) / Fold change (Aza/veh), FGFR1OP (ProbeSet 11751329_s_at) / Fold change (ACY-1035/veh), FGFR1OP (ProbeSet 11751329_s_at) / Fold change (Aza/veh), VPS36 (ProbeSet 11739960_a_at) / Fold change (ACY-1035/veh), VPS36 (ProbeSet 11739960_a_at) / RFU SYPL1 (11715823_x_at) / Fold change /veh SYPL1 (11715823_x_at) / RFU IGFBP7 (11715501_s_at) / Fold change /veh IGFBP7 (11715501_s_at) / RFU REEP3 (11722064_at) / Fold change /veh REEP3 (11722064_at) / RFU IGLL1 (11728026_x_at) / Fold change /veh IGLL1 (11728026_x_at): dose or concentration left out as unconfirmed
Conditions: ProbeSet 11755070_a_at; LIST D

## Nc1ncn([C@@H]2O[C@H](CO)[C@@H](O)[C@H]2O)c(=O)n1 [azacitidine]
  RFU, CARD8: 161.67 RFU
